Data on 17 molecules can be found in patent publication US20050054103A1, “Expansion of renewable stem cell populations using modulators of PI 3-kinase” (priority 2003, published 2005).

The subject of series [1] is HL-60 cells. Description: Copper determination in chelator treated cells (atomic absorption). Format: cell-based, human. The settings on record: for activity at 20 µM / activity at 100 µM / activity at 500 µM: Homo sapiens, HL-60, read-out: Average Intracellular Cu (% of control). On the procedure: Copper Determination: Cells were harvested by centrifugation at 1000×g for 5 minutes. The cell pellet was washed three times by re-suspending the cells in PBS (Ca^++ and Mg^++ free) and centrifugation at 1000×g. An aliquot containing 2×10^6 cells was then transferred into a metal-free Eppendorf tube and the cells were recovered by centrifugation at 1000×g. The cell pellet was re-suspended in 0.03 M ultra-pure nitric acid to give a concentration of 1×10^7 cells/ml. The cells were homogenized with a high shear mixer (polytron, Kinematica, Switzerland) for 1 minutes to disrupt the cell and release intracellular copper content. Cell samples were vortexed before transferring to a vial autosampler and analyzed in duplicate by a Perkin Elmer graphite furnace atomic absorption spectrophotometer at a wavelength of 324.7 nm. The samples were analyzed against copper standard solution prepared from a commercial stock solution that was diluted with 0.03 M ultra pure nitric acid.
FIG. 44 provides the chemical structure of the various chelators employed in these experiments.

Series [2] relates to CD34 cells. In words: Transition metal chelators in CD34+ cell liquid cultures (cell number, CD34 cells, clonability). Format: cell-based, human. The settings on record: for cell proliferation and CFUc expansion in long-term CD34 cultures: long term cultures with early cytokines. On the procedure: The interphase layer of mononuclear cells were collected, washed three times with Ca/Mg free phosphate buffered saline containing 1% bovine serum albumin (BSA). The cells were incubated for 30 min. at 4° C. with murine monoclonal anti CD34 antibody (0.5 μg/10^6 mononuclear cells) and thereafter isolated using the miniMACS apparatus (Miltenyi-Biotec, Bergisch, Gladbach, Germany) according to the manufacturer's protocol.
Culture procedures: For the expansion of progenitor cells, CD34^+ enriched fractions or unseparated mononuclear cells were seeded at about 1-3×10^4 cells/ml in either alpha minimal essential medium containing 10% preselected fetal calf serum (FCS) (both from GIBCO, Grand Island, N.Y.), or serum-free medium (Progenitor-34 medium, Life Technologies, Grand Island, N.Y.). The media were supplemented with a mixture of growth factors and transition metal chelators. The cultures were incubated at 37° C. in an atmosphere of 5% CO2 in air with extra humidity. Half of the medium was changed weekly with fresh medium containing all the supplements.
Cloning potential evaluations: The cloning potential of cells developed in the liquid culture was assayed, at different intervals, in semi-solid medium. The cells were washed and seeded in 35 mm dishes in methylcellulose containing alpha medium supplemented with recombinant growth factors (SCF, G-CSF, GM-CSF and EPO). Following 2 weeks incubation, the cultures were scored with an inverted microscope. Colonies were classified as blast, mixed, erythroid, myeloid, and megakaryocytic, according to their cellular composition.
Morphological assessment: In order to characterize the resulting culture populations, aliquots of cells were deposited on a glass slide (cytocentrifuge, Shandon, Runcorn, UK), fixed and stained in May-Grunwald Giemsa. Other aliquots were stained by benzidine for intracellular hemoglobin.
Immunofluorescence staining: At different intervals, cells from the liquid cultures were assayed for CD34 antigen. Aliquots were harvested, washed and incubated on ice with FITC-labeled anti CD45 monoclonal antibody and either PE-labeled anti CD34 (HPCA-2) monoclonal antibody or PE-labeled control mouse Ig. After incubation, red cells were lysed with lysing solution, while the remaining cells were washed and analyzed by flow cytometer.
Flow cytometry: Cells were analyzed and sorted using FACStar^plus flow cytometer (Becton-Dickinson, Immunofluorometry systems, Mountain View, Calif.). Cells were passed at a rate of 1,000 cells/second through a […] nozzle, using saline as the sheath fluid. […] The PMTs was set at the appropriate voltage. Logarithmic amplification was applied for measurements of fluorescence and linear amplification—for forward light scatter. At least 10^4 cells were analyzed.
Cord blood-derived CD34 cells were plated in liquid culture in the presence of: FL—50 ng/ml, SCF—50 ng/ml, IL-6—50 ng/ml, with or without IL-3—20 ng/ml, with or without TEPA—10 μM. On day 7, the percentage of CD34 cells and the total cell number were determined. Aliquots equivalent to 1×10^3 initiating cells were assayed on days 0 and 7 for colony forming cells (CFU) by cloning in semi-solid medium. CFU expansion represents the ratio of CFU present on day 7 to CFU present on day 0.
CD34^+ cells derived from human neonatal cord blood were purified by immunomagnetic method and then cultured in liquid medium supplemented with cytokines either with or without transition metal chelators. At weekly intervals, the cultures were demi-depopulated by removing half of the culture content (supernatant and cells) and replacing it with fresh medium, cytokines and the chelators. At the indicated weeks the cellular content of the cultures were quantified for total cells (by a manual microscopic/hemocytometric method), for CD34^+ cells (by immuno-flow cytometry) and for clonogenic cells (by cloning the cells in cytokine-supplemented semi-solid medium).

Series [3] relates to CD34+ cells. In words: Ex vivo expansion of CD34+ cell enriched cultures with RXR, RAR and RAR+RXR antagonists (CFU, CD34+ counts, FACS). The class given is cell-based, human. How it is done:
Cultures were prepared and maintained as described above.
, the percentage of cells bearing the CD34^+ marker (considered to be mostly committed progenitor cells), as well as the percentage of cells bearing the markers CD34^+/CD38^− and CD34^+Lin^− […]

The subject of series [4] is Mouse erythroleukemic cells (MEL). In words: HMBA-induced differentiation of erythroleukemic cells. The class given is cell-based. The settings on record: day 3. On the procedure:
Mouse erythroleukemic cells (MEL): MEL cells are erythroblast like cells. Following treatment with several chemicals (differentiation inducers) the cells undergo erythroid differentiation and accumulate hemoglobin. […] At day 3 of the culture, the total number of cells and the percentage of hemoglobin-containing cells were determined (Table 7).
On day 3, total cell number and hemoglobin containing (benzidine positive) cells were determined.

Setting [5] is: HX-531 (10^−5M in table head), 3 weeks after seeding.
[6] abbreviates: polyamine chelating agents, long-term CD34 cultures (FIGS. 39a-b).

As to `C1COCCNCCOCCN1` [1,7-Dioxa-4,10-diazacyclododecane], in series [1] (20 μM chelator), the “Average Intracellular ppb Cu” value came to 35.5 ppb and the activity at 20 µM was 72%. Further, in series [1] (100 μM chelator), the “Average Intracellular ppb Cu” value is given as 36.1 ppb and the activity at 100 µM turned out to be 73%. Moreover, in series [1] (500 μM chelator), the “Average Intracellular ppb Cu” value came out at 35.0 ppb and the activity at 500 µM was 71%.
In the case of `NCCCN(CCN)CCN` [N,N,Bis (2 animoethyl) 1,3 propane diamine], in series [1] (20 μM chelator), the “Average Intracellular Cu (% of control)” value turned out to be 22% and the “Average Intracellular ppb Cu” value is recorded as 10.8 ppb. For the same molecule, in series [1] (100 μM chelator), the “Average Intracellular Cu (% of control)” value is reported as 27% and the “Average Intracellular ppb Cu” value is reported as 13.4 ppb.
For the molecule `O=C1CC(=O)NCCNCCCNCCN1` [1,4,8,11-Tetraaza cyclotetradecane-5,7-dione], in series [1] (20 μM chelator), the “Average Intracellular ppb Cu” value came out at 37.9 ppb and the activity at 20 µM is 77%. Further, in series [1] (100 μM chelator), the “Average Intracellular ppb Cu” value stood at 27.4 ppb and the activity at 100 µM is 56%. Further, in series [1] (500 μM chelator), the “Average Intracellular ppb Cu” value was 28.3 ppb and the activity at 500 µM turned out to be 57%.
For Zinc, the “cell proliferation and CFUc expansion in long-term CD34 cultures” value (from here on “cell proliferation and CFUc expansion”) in series [2] is listed as “mimicked the effect of the chelating agents in long term cultures, but to a smaller extent than the chelators themselves”.
With Copper, the “effect on TEPA activities” value in series [2] (TEPA-treated cultures supplemented with Copper) is “reversed”.
For Glycyl-glycyl-histidine Cu complex, the “Average Intracellular Cu (% of control)” value in series [1] (20 μM chelator) amounted to 411%; in series [1] (100 μM chelator) it was 1181%; in series [1] (500 μM chelator) it was 2592%. Further, the entries for the “Average Intracellular ppb Cu” value in series [1] (20 μM chelator), in series [1] (100 μM chelator) and in series [1] (500 μM chelator) were 202.7 ppb, 582 ppb and 1278 ppb, respectively.
Consider `C1CNCCCNCCNCCCNC1` [1,4,8,12-tetraaza cyclopentadecane], for which, in series [1] (20 μM chelator), the “Average Intracellular ppb Cu” value was determined as 13.4 ppb and the activity at 20 µM came out at 27%. In addition, in series [1] (100 μM chelator), the “Average Intracellular ppb Cu” value is 12.1 ppb and the activity at 100 µM was 25%. Moreover, in series [1] (500 μM chelator), the “Average Intracellular ppb Cu” value is on record as 9.6 ppb and the activity at 500 µM worked out at 19%.
`CC(C)(S)[C@@H](N)C(=O)O` [PEN, Penicillamine]: the “cell proliferation and CFUc expansion” value in series [2] was “sustained cell proliferation and expansion of clonogenic cells”. For the same molecule, in series [2] (transition metal chelating agents, long-term CD34 cultures (FIGS. 40a-b)), the “concentration with optimal activity” value was 5 µM.
Consider `CN1c2ccc([N+](=O)[O-])cc2N=C(c2ccc(C(=O)O)cc2)c2cc3c(cc21)C(C)(C)CCC3(C)C` [HX-531, 4-[5H-2,3-(2,5-Dimethyl-2,5-Hexano) 5-Methyl-8-nitrodibenzo [b,e][1,4]diazepin-11-yl) Benzoic acid], for which the “CD34^+ (×10^4)” value is listed as 167 ×10^4 in series [3] (setting [5]); 1636 ×10^4 in series [3] (HX-531, 5 weeks after seeding); 4977 ×10^4 in series [3] (HX-531, 9 weeks after seeding); 4055 ×10^4 in series [3] (HX-531, 11 weeks after seeding). The “CFU (×10^3)” value in series [3] (setting [5]) is on record as 1920 ×10^3; in series [3] (HX-531, 5 weeks after seeding), 8542 ×10^3; in series [3] (HX-531, 9 weeks after seeding) it was 36557 ×10^3; in series [3] (HX-531, 11 weeks after seeding), 67338 ×10^3. In addition, in series [3] (HX-531, 3 weeks after seeding), the “CFU mixed (×10^3)” value is listed as 120 ×10^3.
Take `NCCCNCCCNCCCN` [N,N′-bis(3-aminopropyl)-1,3-propanediamine]: in series [1] (20 μM chelator), the “Average Intracellular ppb Cu” value is on record as 33.8 ppb and the activity at 20 µM amounted to 69%. Moreover, in series [1] (100 μM chelator), the “Average Intracellular ppb Cu” value is given as 26.2 ppb and the activity at 100 µM turned out to be 53%. Moreover, in series [1] (500 μM chelator), the “Average Intracellular ppb Cu” value was 27.9 ppb and the activity at 500 µM worked out at 57%.
`NCCN` [EDA, ethylenediamine]: the “cell proliferation and CFUc expansion” value in series [2] is “support continuous cell proliferation and long-term generation of CFUc and to delay cell differentiation”. For the same molecule, in series [2] (setting [6]), the “concentration with optimal activity” value is 20 µM.
Turning to `C1CNCCOCCNCCN1` [1-Oxa-4,7,10-triazacyclododecane], in series [1] (20 μM chelator), the “Average Intracellular ppb Cu” value came out at 39.0 ppb and the activity at 20 µM was found to be 79%. In addition, in series [1] (100 μM chelator), the “Average Intracellular ppb Cu” value is 22.9 ppb and the activity at 100 µM amounted to 46%. Also, in series [1] (500 μM chelator), the “Average Intracellular ppb Cu” value is reported as 17.6 ppb and the activity at 500 µM was 36%.
Consider `NCCNCCNCCN` [TETA, triethylene-tetramine], for which, in series [1] (20 μM chelator), the “Average Intracellular ppb Cu” value amounted to 27.7 ppb and the activity at 20 µM was 56%. Further, in series [1] (100 μM chelator), the “Average Intracellular ppb Cu” value is 21.2 ppb and the activity at 100 µM stood at 43%. Besides, in series [1] (500 μM chelator), the “Average Intracellular ppb Cu” value came out at 16.8 ppb and the activity at 500 µM was determined as 34%. For the same molecule, in series [2], the “cell proliferation and CFUc expansion” value is “support continuous cell proliferation and long-term generation of CFUc and to delay cell differentiation”. The “concentration with optimal activity” value in series [2] (setting [6]) was 20 µM.
Take `CC(=O)NCCCCCCNC(C)=O` [HMBA, hexamethylene bisacetamide]: in series [4] (HMBA 4 mM alone), the “Benzidine Positive Cells (%)” value is recorded as 46% and the “Cells/ml (×10^4)” value is listed as 32 ×10^4.
As to `C1CNCCNCCN1.Cl.Cl.Cl` [1,4,7-Triazacyclononane trihydrochloride], in series [1] (20 μM chelator), the “Average Intracellular ppb Cu” value is listed as 15.8 ppb and the activity at 20 µM was found to be 32%. In series [1] (100 μM chelator), the “Average Intracellular ppb Cu” value is on record as 17.7 ppb and the activity at 100 µM stood at 36%.
For `C[C@H](CS)C(=O)N1CCC[C@H]1C(=O)O` [Captopril, captopril], in series [4] (HMBA + chelator 20 μM), the “Benzidine Positive Cells (%)” value turned out to be 29% and the “Cells/ml (×10^4)” value is 34 ×10^4. In addition, in series [4] (HMBA + chelator 40 μM), the “Benzidine Positive Cells (%)” value worked out at 12% and the “Cells/ml (×10^4)” value is recorded as 34 ×10^4.
For `CCCOc1cc2c(cc1\C(C)=C/C=C/C(C)=C/C(=O)O)C(C)(C)CCC2(C)C` [LGN 100754], in series [3] (10^−7 M, with TPO, FLT3, IL-6 and IL-3, 3 and 5 weeks), the “activity on ex vivo expansion of stem/progenitor cells (CFU, CD34+, CD34+/38−, CD34+/Lin−)” value was “no activity”.
